Converted amounts (≈) assume the structure as drawn.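 These data come from cells grown in 96-well plates and exposed to compound for 48 hours at five concentrations. GI50 marks 50% less growth. TGI: concentration producing complete growth inhibition.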
Legend:
Assay in all cases: NCI tumour cell line growth inhibition, 48 h
SR leukemia = tested on: SR leukemia
786-0 renal = tested on: 786-0 renal
A498 renal = tested on: A498 renal
A549 NSCLC = tested on: A549 NSCLC
ACHN renal = tested on: ACHN renal
BT-549 breast = tested on: BT-549 breast
CAKI-1 renal = tested on: CAKI-1 renal
COLO 205 colon = tested on: COLO 205 colon
DU-145 prostate = tested on: DU-145 prostate
EKVX NSCLC = tested on: EKVX NSCLC
HCC-2998 colon = tested on: HCC-2998 colon
HCT-116 colon = tested on: HCT-116 colon
HOP-62 NSCLC = tested on: HOP-62 NSCLC
HS 578T breast = tested on: HS 578T breast
HT29 colon = tested on: HT29 colon
IGROV1 ovarian = tested on: IGROV1 ovarian
K-562 leukemia = tested on: K-562 leukemia
KM12 colon = tested on: KM12 colon
LOX IMVI melanoma = tested on: LOX IMVI melanoma
M14 melanoma = tested on: M14 melanoma
MDA-MB-231 breast = tested on: MDA-MB-231 breast
MDA-MB-435 = tested on: MDA-MB-435
NCI-H226 lung = tested on: NCI-H226 lung
NCI-H522 lung = tested on: NCI-H522 lung
NCI/ADR-RES ovarian = tested on: NCI/ADR-RES ovarian
OVCAR-5 ovarian = tested on: OVCAR-5 ovarian
OVCAR-8 ovarian = tested on: OVCAR-8 ovarian
PC-3 prostate = tested on: PC-3 prostate
RXF 393 renal = tested on: RXF 393 renal
SK-MEL-2 melanoma = tested on: SK-MEL-2 melanoma
SK-MEL-5 melanoma = tested on: SK-MEL-5 melanoma
SN12C renal = tested on: SN12C renal
TK-10 renal = tested on: TK-10 renal
U251 CNS = tested on: U251 CNS
UACC-257 melanoma = tested on: UACC-257 melanoma
UACC-62 melanoma = tested on: UACC-62 melanoma
UO-31 renal = tested on: UO-31 renal
HOP-92 NSCLC = tested on: HOP-92 NSCLC
SF-295 CNS = tested on: SF-295 CNS
SF-539 CNS = tested on: SF-539 CNS
SK-MEL-28 melanoma = tested on: SK-MEL-28 melanoma
SK-OV-3 ovarian = tested on: SK-OV-3 ovarian
SNB-75 CNS = tested on: SNB-75 CNS
T-47D breast = tested on: T-47D breast

**Q.** `COc1cccc(CC2C(=O)NC(=O)NC2=O)c1` was tested. Which GI50 (SR leukemia) did it give?
**A.** The GI50 was 39.5 mg/L (≈ 159 µM).

**Q.** With `NC(N)=N/N=C/c1c(-c2ccc(Cl)c([N+](=O)[O-])c2)nc2sc3ccccc3n12` as the compound, how does the GI50 (786-0 renal) read?
**A.** Its GI50 is 0.951 µM.

**Q.** What about the TGI (786-0 renal) of the same compound?
**A.** Its TGI is 1.75 µM.

**Q.** What about the GI50 (A498 renal) of the same compound?
**A.** The GI50 was 3.9 µM.

**Q.** What about the TGI (A498 renal) of the same compound?
**A.** The TGI was 11.2 µM.

**Q.** What about the GI50 (A549 NSCLC) of the same compound?
**A.** The GI50 was 1.61 µM.

**Q.** What about the TGI (A549 NSCLC) of the same compound?
**A.** The TGI was > 12.2 µM.

**Q.** And the GI50 (ACHN renal)?
**A.** Its GI50 is 0.862 µM.

**Q.** And the TGI (ACHN renal)?
**A.** The TGI was 1.56 µM.

**Q.** And the GI50 (BT-549 breast)?
**A.** Its GI50 is 0.895 µM.

**Q.** And the TGI (BT-549 breast)?
**A.** Its TGI is 2.12 µM.

**Q.** What about the GI50 (CAKI-1 renal) of the same compound?
**A.** The GI50 was 1.66 µM.

**Q.** What about the TGI (CAKI-1 renal) of the same compound?
**A.** The TGI was 8.49 µM.

**Q.** And the GI50 (COLO 205 colon)?
**A.** The GI50 was 0.98 µM.

**Q.** And the GI50 (DU-145 prostate)?
**A.** The GI50 was 2.29 µM.

**Q.** What about the TGI (DU-145 prostate) of the same compound?
**A.** The TGI was 14.8 µM.

**Q.** And the GI50 (EKVX NSCLC)?
**A.** Its GI50 is 2.03 µM.

**Q.** What about the TGI (EKVX NSCLC) of the same compound?
**A.** Its TGI is 7.16 µM.

**Q.** And the GI50 (HCC-2998 colon)?
**A.** Its GI50 is 0.296 µM.

**Q.** What about the TGI (HCC-2998 colon) of the same compound?
**A.** The TGI was 0.95 µM.

**Q.** And the GI50 (HCT-116 colon)?
**A.** The GI50 was 0.02 µM.

**Q.** What about the TGI (HCT-116 colon) of the same compound?
**A.** Its TGI is 8.97 µM.

**Q.** And the GI50 (HOP-62 NSCLC)?
**A.** Its GI50 is 11.6 µM.

**Q.** And the TGI (HOP-62 NSCLC)?
**A.** The TGI was 28.1 µM.

**Q.** What about the GI50 (HS 578T breast) of the same compound?
**A.** Its GI50 is 1.38 µM.

**Q.** And the TGI (HS 578T breast)?
**A.** Its TGI is 2.91 µM.

**Q.** And the GI50 (HT29 colon)?
**A.** Its GI50 is 1.93 µM.

**Q.** And the TGI (HT29 colon)?
**A.** The TGI was > 50 µM.

**Q.** What about the GI50 (IGROV1 ovarian) of the same compound?
**A.** Its GI50 is 11.8 µM.

**Q.** And the TGI (IGROV1 ovarian)?
**A.** Its TGI is > 50 µM.

**Q.** And the GI50 (K-562 leukemia)?
**A.** The GI50 was 0.209 µM.

**Q.** And the TGI (K-562 leukemia)?
**A.** The TGI was > 50 µM.

**Q.** What about the GI50 (KM12 colon) of the same compound?
**A.** The GI50 was 0.842 µM.

**Q.** And the TGI (KM12 colon)?
**A.** The TGI was 2.54 µM.

**Q.** What about the GI50 (LOX IMVI melanoma) of the same compound?
**A.** The GI50 was 0.0923 µM.

**Q.** And the TGI (LOX IMVI melanoma)?
**A.** Its TGI is 0.17 µM.

**Q.** And the GI50 (M14 melanoma)?
**A.** Its GI50 is 0.136 µM.

**Q.** And the TGI (M14 melanoma)?
**A.** Its TGI is 12 µM.

**Q.** And the GI50 (MDA-MB-231 breast)?
**A.** The GI50 was 0.697 µM.

**Q.** And the TGI (MDA-MB-231 breast)?
**A.** Its TGI is 1.47 µM.

**Q.** What about the GI50 (MDA-MB-435) of the same compound?
**A.** Its GI50 is 1.1 µM.

**Q.** What about the TGI (MDA-MB-435) of the same compound?
**A.** The TGI was 2.4 µM.

**Q.** And the GI50 (NCI-H226 lung)?
**A.** The GI50 was 1.79 µM.

**Q.** What about the TGI (NCI-H226 lung) of the same compound?
**A.** The TGI was 11.1 µM.

**Q.** What about the GI50 (NCI-H522 lung) of the same compound?
**A.** The GI50 was 3.66 µM.

**Q.** What about the TGI (NCI-H522 lung) of the same compound?
**A.** The TGI was > 50 µM.

**Q.** And the GI50 (NCI/ADR-RES ovarian)?
**A.** Its GI50 is 0.583 µM.

**Q.** And the TGI (NCI/ADR-RES ovarian)?
**A.** The TGI was 1.76 µM.

**Q.** What about the GI50 (OVCAR-5 ovarian) of the same compound?
**A.** The GI50 was 0.773 µM.

**Q.** What about the TGI (OVCAR-5 ovarian) of the same compound?
**A.** Its TGI is 1.44 µM.

**Q.** And the GI50 (OVCAR-8 ovarian)?
**A.** The GI50 was 1.19 µM.

**Q.** And the TGI (OVCAR-8 ovarian)?
**A.** Its TGI is 2.76 µM.

**Q.** What about the GI50 (PC-3 prostate) of the same compound?
**A.** Its GI50 is 0.738 µM.

**Q.** What about the TGI (PC-3 prostate) of the same compound?
**A.** The TGI was 1.4 µM.

**Q.** And the GI50 (RXF 393 renal)?
**A.** Its GI50 is 10.9 µM.

**Q.** And the TGI (RXF 393 renal)?
**A.** Its TGI is 26.9 µM.

**Q.** And the GI50 (SK-MEL-2 melanoma)?
**A.** Its GI50 is 26.8 µM.

**Q.** And the TGI (SK-MEL-2 melanoma)?
**A.** Its TGI is > 50 µM.

**Q.** What about the GI50 (SK-MEL-5 melanoma) of the same compound?
**A.** Its GI50 is 0.952 µM.

**Q.** And the TGI (SK-MEL-5 melanoma)?
**A.** Its TGI is 1.95 µM.

**Q.** What about the GI50 (SN12C renal) of the same compound?
**A.** Its GI50 is 0.529 µM.

**Q.** What about the TGI (SN12C renal) of the same compound?
**A.** Its TGI is 1.38 µM.

**Q.** And the GI50 (TK-10 renal)?
**A.** The GI50 was 0.95 µM.

**Q.** What about the TGI (TK-10 renal) of the same compound?
**A.** The TGI was 1.91 µM.

**Q.** What about the GI50 (U251 CNS) of the same compound?
**A.** Its GI50 is 0.0951 µM.

**Q.** And the TGI (U251 CNS)?
**A.** The TGI was 0.177 µM.

**Q.** And the GI50 (UACC-257 melanoma)?
**A.** The GI50 was 8.38 µM.

**Q.** What about the TGI (UACC-257 melanoma) of the same compound?
**A.** The TGI was 18 µM.

**Q.** And the GI50 (UACC-62 melanoma)?
**A.** Its GI50 is 0.849 µM.

**Q.** And the TGI (UACC-62 melanoma)?
**A.** The TGI was 1.58 µM.

**Q.** And the GI50 (UO-31 renal)?
**A.** The GI50 was 23.6 µM.

**Q.** And the TGI (UO-31 renal)?
**A.** The TGI was > 50 µM.

**Q.** What does the source list for `Cc1cc(Nc2ccc(Cl)cc2)nc(NCCCNc2ccnc3cc(Cl)ccc23)n1`?
**A.** GI50 (ACHN renal): 1.63 µM; TGI (ACHN renal): 3.06 µM; GI50 (CAKI-1 renal): 1.53 µM; TGI (CAKI-1 renal): 2.9 µM; GI50 (COLO 205 colon): 1.66 µM; TGI (COLO 205 colon): 3.31 µM; GI50 (DU-145 prostate): 1.84 µM; TGI (DU-145 prostate): 3.35 µM; GI50 (HOP-62 NSCLC): 1.53 µM; TGI (HOP-62 NSCLC): 3.07 µM; GI50 (HOP-92 NSCLC): 1.01 µM; TGI (HOP-92 NSCLC): 2.53 µM; GI50 (HS 578T breast): 1.84 µM; TGI (HS 578T breast): 3.98 µM; GI50 (LOX IMVI melanoma): 1.64 µM; TGI (LOX IMVI melanoma): 3.18 µM; GI50 (OVCAR-5 ovarian): 1.66 µM; TGI (OVCAR-5 ovarian): 3.09 µM; GI50 (PC-3 prostate): 1.65 µM; TGI (PC-3 prostate): 3.18 µM; GI50 (RXF 393 renal): 1.52 µM; TGI (RXF 393 renal): 3.08 µM; GI50 (SF-295 CNS): 1.64 µM; TGI (SF-295 CNS): 3.04 µM; GI50 (SF-539 CNS): 1.65 µM; TGI (SF-539 CNS): 3.13 µM; GI50 (SK-MEL-2 melanoma): 1.86 µM; TGI (SK-MEL-2 melanoma): 3.57 µM; GI50 (SK-MEL-28 melanoma): 1.81 µM; TGI (SK-MEL-28 melanoma): 3.31 µM; GI50 (SK-MEL-5 melanoma): 1.57 µM; TGI (SK-MEL-5 melanoma): 2.91 µM; GI50 (SK-OV-3 ovarian): 1.65 µM; TGI (SK-OV-3 ovarian): 3.01 µM; GI50 (SNB-75 CNS): 1.33 µM; TGI (SNB-75 CNS): 2.6 µM; GI50 (T-47D breast): 1.83 µM; TGI (T-47D breast): 3.81 µM; GI50 (TK-10 renal): 1.73 µM; TGI (TK-10 renal): 3.19 µM; GI50 (U251 CNS): 1.5 µM; TGI (U251 CNS): 2.88 µM; GI50 (UACC-257 melanoma): 1.8 µM; TGI (UACC-257 melanoma): 3.39 µM; GI50 (UACC-62 melanoma): 1.79 µM; TGI (UACC-62 melanoma): 3.58 µM; GI50 (UO-31 renal): 1.49 µM; TGI (UO-31 renal): 2.96 µM

Reference: PubChem BioAssay (NCI)
